Experimental data taken from patent US11021628B2, “Coating composition containing methyl cellulose, method for producing the same, and solid preparation” (Shin-Etsu Chemical Co., Ltd., priority 2016, dated 2021).

Assay: Dissolution Test, Paddle method, Japanese Pharmacopoeia Sixteenth Edition
Assay type: physicochemical
Details: acetaminophen, water, paddle 100 rpm
Description: The coated granules was subjected to the dissolution test in accordance with Dissolution Test, Paddle method in the Japanese Pharmacopoeia Sixteenth Edition at a paddle rotation rate of 100 rpm with water as the test liquid, and the drug concentration was quantitatively determined at a measurement wavelength of 244 nm by using an ultraviolet spectrophotometer (UV-1700, manufactured by Shimadzu Corporation).
As Reference Example 1, the dissolution rates of an acetaminophen powder after 1 minute and 10 minutes are also shown in Table 3.

Compound: CC(=O)Nc1ccc(O)cc1 [Ref. Ex. 1, acetaminophen]
- dissolution ratio after 1 minute (1 minute): 48.0%
- dissolution ratio after 10 minutes (10 minutes): 99.6%
